From patent US7655669B2, “Pyrimidineamide derivatives and the use thereof” (Novartis AG, priority 2002, dated 2010)

Experiments:
[1] = target: T1, c-Abl protein tyrosine kinase (Homo sapiens, UniProt P00519); test: Test for activity against c-Abl protein tyrosine kinase (filter binding assay); assay type: biochemical; details: expressed as a range within which individual IC50 measurements fall
T1 construct: The His-tagged kinase domain of c-Abl is cloned and expressed in the baculovirus/Sf9 system; His; made in house; host or cells: baculovirus/Sf9
T1 sequence (P00519 242-493 limits assumed): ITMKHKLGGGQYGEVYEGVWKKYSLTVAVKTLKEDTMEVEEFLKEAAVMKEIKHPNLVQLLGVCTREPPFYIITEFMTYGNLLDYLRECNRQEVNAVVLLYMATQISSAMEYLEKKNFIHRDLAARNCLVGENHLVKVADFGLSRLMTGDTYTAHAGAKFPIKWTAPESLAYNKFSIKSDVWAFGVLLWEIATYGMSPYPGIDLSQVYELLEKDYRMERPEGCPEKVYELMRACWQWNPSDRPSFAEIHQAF
Method: Test for activity against c-Abl protein tyrosine kinase. […] The assay contains: c-Abl kinase (50 ng), 20 mM Tris-HCl, pH 7.5, 10 mM MgCl2, 10 μM Na3VO4, 1 mM DTT and 0.06 μCi/assay [γ^33P]-ATP (5 μM ATP) using 30 μg/mL poly-Ala,Glu,Lys,Tyr-6:2:5:1 (Poly-AEKY, Sigma P1152) in the presence of 1% DMSO, total volume of 30 μL. Reactions are terminated by adding 10 μL of 250 mM EDTA, and 30 μL of the reaction mixture is transferred onto Immobilon-PVDF membrane (Millipore, Bedford, Mass., USA) previously soaked for 5 min with methanol, rinsed with water, then soaked for 5 min with 0.5% H3PO4 and mounted on vacuum manifold with disconnected vacuum source. After spotting all samples, vacuum is connected and each well rinsed with 200 μL 0.5% H3PO4. Membranes are removed and washed on a shaker with 0.5% H3PO4 (4 times) and once with ethanol. Membranes are counted after drying at ambient temperature, mounting in Packard TopCount 96-well frame, and addition of 10 μL/well of Microscint™ (Packard).

[2] = target: T2, p210 Bcr-Abl (Homo sapiens, UniProt P00519); test: Test for activity against Bcr-Abl (Bcr-Abl phosphorylation ELISA in 32D-bcr/abl cells); assay type: cell-based; details: expressed as a range within which individual IC50 measurements fall
T2 construct: expressed in transfected cells; host or cells: murine myeloid progenitor cell line 32Dcl3 (32D-bcr/abl), from J. Griffin; the other entry of the earlier key: BCR (P11274, Breakpoint cluster region protein)
Excerpt: Test for activity against Bcr-Abl. The murine myeloid progenitor cell line 32Dcl3 transfected with the p210 Bcr-Abl expression vector pGDp210Bcr/Abl (32D-bcr/abl) was obtained from J. Griffin (Dana Faber Cancer Institute, Boston, Mass., USA). The cells express the fusion Bcr-Abl protein with a constitutively active Abl kinase and proliferate growth factor independent. […] After thawing, the cells are used during maximally 10-12 passages for the experiments.
For cellular assays, compounds are dissolved in DMSO and diluted with complete medium to yield a starting concentration of 10 μM followed by preparation of serial 3-fold dilutions in complete medium. 200,000 32D-Bcr/Abl cells in 50 μL complete medium are seeded per well in 96 well round bottom tissue culture plates. 50 μL per well of serial 3-fold dilutions of the test compound are added to the cells in triplicates. Untreated cells are used as control. The compound is incubated together with the cells for 90 min at 37° C., 5% CO2, followed by centrifugation of the tissue culture plates at 1300 rpm (Beckman GPR centrifuge) and removal of the supernatants by careful aspiration taking care not to remove any of the pelleted cells. The cell pellets are lysed by addition of 150 μL lysis buffer (50 mM Tris/HCl, pH 7.4, 150 mM sodium chloride, 5 mM EDTA, 1 mM EGTA, 1% NP-40, 2 mM sodium ortho-vanadate, 1 mM PMSF, 50 μg/mL aprotinin and 80 μg/mL leupeptin) and either used immediately for the ELISA or stored frozen in the plates at −20° C. until usage.
After washing 3 times with 200 μL/well PBS containing 0.05% Tween20 (PBST) and 0.5% TopBlock (Juro), residual protein binding sites are blocked with 200 μL/well PBST, 3% TopBlock for 4 h at room temperature followed by incubation with 50 μL lysates of untreated or compound-treated cells (20 μg total protein per well) for 3-4 h at 4° C. After 3 washings, 50 μL/well anti-phosphotyrosine Ab PY20(AP) labeled with alkaline phosphatase (Zymed) diluted to 0.2 μg/mL in blocking buffer is added and incubated over night (4° C.). For all incubation steps the plates are covered with plate sealers (Costar). Finally, the plates are washed another three times with washing buffer and once with deionized water before addition of 90 μL/well of the AP-substrate CDPStar RTU with Emerald II. The plates, now sealed with Packard TopSeal™-A plate sealers, are incubated for 45 min at room temperature in the dark and luminescence is quantified by measuring counts per second (CPS) with a Packard Top Count Microplate Scintillation Counter (Top Count).
The difference between the ELISA-readout (CPS) obtained for with the lysates of the untreated 32D-Bcr/Abl cells and the readout for the assay-background (all components, but without cell lysate) is calculated and taken as 100% reflecting the constitutively phosphorylated Bcr-Abl protein present in these cells. The activity of the compound on the Bcr-Abl kinase activity is expressed as percent reduction of the Bcr-Abl phosphorylation. The values for the IC50 and IC90 are determined from the dose response curves by graphical extrapolation.

T2 sequence (P00519 28-1130 limits assumed): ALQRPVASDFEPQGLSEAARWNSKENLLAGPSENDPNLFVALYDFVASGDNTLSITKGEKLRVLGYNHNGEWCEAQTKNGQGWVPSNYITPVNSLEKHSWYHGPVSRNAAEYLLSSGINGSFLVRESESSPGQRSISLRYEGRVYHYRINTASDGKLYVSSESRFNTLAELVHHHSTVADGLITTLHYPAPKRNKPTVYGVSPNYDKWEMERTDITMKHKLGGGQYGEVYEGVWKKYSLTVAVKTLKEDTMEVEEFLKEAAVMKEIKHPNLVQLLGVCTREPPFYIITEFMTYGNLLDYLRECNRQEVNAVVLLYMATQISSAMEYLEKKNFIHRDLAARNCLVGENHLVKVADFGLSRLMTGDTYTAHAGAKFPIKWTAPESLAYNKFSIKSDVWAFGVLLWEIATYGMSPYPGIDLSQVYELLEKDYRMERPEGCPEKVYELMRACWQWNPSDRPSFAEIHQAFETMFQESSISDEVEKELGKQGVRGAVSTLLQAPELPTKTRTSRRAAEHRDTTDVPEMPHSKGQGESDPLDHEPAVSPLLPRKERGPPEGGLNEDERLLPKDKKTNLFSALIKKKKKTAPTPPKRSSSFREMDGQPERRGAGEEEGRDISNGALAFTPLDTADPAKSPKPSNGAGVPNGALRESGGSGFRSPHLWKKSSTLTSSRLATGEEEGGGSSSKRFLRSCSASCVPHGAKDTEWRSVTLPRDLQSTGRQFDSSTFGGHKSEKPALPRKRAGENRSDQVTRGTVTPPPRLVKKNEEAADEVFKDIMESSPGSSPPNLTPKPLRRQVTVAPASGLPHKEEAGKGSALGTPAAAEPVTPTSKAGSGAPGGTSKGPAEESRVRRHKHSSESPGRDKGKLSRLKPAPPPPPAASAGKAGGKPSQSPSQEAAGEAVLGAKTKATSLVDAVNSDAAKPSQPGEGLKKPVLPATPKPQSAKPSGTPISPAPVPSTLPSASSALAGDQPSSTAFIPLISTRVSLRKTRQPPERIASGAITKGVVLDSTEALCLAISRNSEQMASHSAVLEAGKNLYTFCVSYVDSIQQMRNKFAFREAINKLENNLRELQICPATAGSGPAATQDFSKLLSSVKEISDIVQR

Compound | IC50 [1] | IC50 [2]
Cc1ccc(NC(=O)c2ccc(N3CCCC3)c(C(F)(F)F)c2)cc1Nc1nccc(-c2cccnc2)n1 [Example 2, N-[4-Methyl-3-[[4-(3-pyridinyl)-2-pyrimidinyl]amino]phenyl]-4-(1-pyrrolidinyl)-3-(trifluoromethyl)-benzamide] | 10 to 60 nM | 100 to 300 nM
Cc1ccc(NC(=O)c2ccc(N3CCOCC3)c(C(F)(F)F)c2)cc1Nc1nccc(-c2cccnc2)n1 [Example 3, N-[4-Methyl-3-[[4-(3-pyridinyl)-2-pyrimidinyl]amino]phenyl]-4-(4-morpholinyl)-3 (trifluoromethyl)-benzamide] | 40 to 100 nM | 20 to 100 nM
Cc1ccc(NC(=O)c2ccc(N3CCCCC3)c(C(F)(F)F)c2)cc1Nc1nccc(-c2cccnc2)n1 [Example 4, N-[4-Methyl-3-[[4-(3-pyridinyl)-2-pyrimidinyl]amino]phenyl]-4-(1-piperidinyl)-3-(trifluoromethyl)-benzamide] | 60 to 110 nM | 80 to 200 nM
Cc1ccc(NC(=O)c2ccc(N3CCN(C)CC3)c(C(F)(F)F)c2)cc1Nc1nccc(-c2cccnc2)n1 [Example 5, 4-(4-Methyl-1-piperazinyl)-N-[4-methyl-3-[[4-(3-pyridinyl)-2-pyrimidinyl]amino]phenyl]-3-(trifluoromethyl)-benzamide] | 5 to 50 nM | 30 to 100 nM
Cc1ccc(NC(=O)c2cc(-n3ccnc3)cc(C(F)(F)F)c2)cc1Nc1nccc(-c2cccnc2)n1 [Example 10, 3-(1H-Imidazol-1-yl)-N-[4-methyl-3-[[4-(3-pyridinyl)-2-pyrimidinyl]amino]phenyl]-5-(trifluoromethyl)-benzamide] | 5 to 20 nM | 10 to 50 nM
Cc1ccc(NC(=O)c2cc(-n3ccnc3C)cc(C(F)(F)F)c2)cc1Nc1nccc(-c2cccnc2)n1 [Example 11, 3-(2-Methyl-1H-imidazol-1-yl)-N-[4-methyl-3-[[4-(3-pyridinyl)-2-pyrimidinyl]amino]phenyl]-5-(trifluoromethyl)-benzamide] | 5 to 20 nM | 10 to 50 nM
Cc1cn(-c2cc(C(=O)Nc3ccc(C)c(Nc4nccc(-c5cccnc5)n4)c3)cc(C(F)(F)F)c2)cn1 [Example 12, 3-(4-Methyl-1H-imidazol-1-yl)-N-[4-methyl-3-[4-(3-pyridinyl)-2-pyrimidinyl]amino]phenyl-5-(trifluoromethyl)-benzamide] | 5 to 20 nM | 10 to 50 nM
Cc1ccc(NC(=O)c2cc(N3CCOCC3)cc(C(F)(F)F)c2)cc1Nc1nccc(-c2cccnc2)n1 [Example 13, N-[4-Methyl-3-[[4-(3-pyridinyl)-2-pyrimidinyl]amino]phenyl]-3-(4-morpholinyl)-5-(trifluoromethyl)-benzamide] | 5 to 20 nM | 20 to 80 nM
Cc1ccc(NC(=O)c2cc(N3CCN(C)CC3)cc(C(F)(F)F)c2)cc1Nc1nccc(-c2cccnc2)n1 [Example 14, 3-(4-Methyl-1-piperazinyl)-N-[4-methyl-3-[[4-(3-pyridinyl)-2-pyrimidinyl]amino]phenyl]-5-(trifluoromethyl)-benzamide] | 5 to 20 nM | 30 to 180 nM
CCNc1cc(C(=O)Nc2ccc(C)c(Nc3nccc(-c4cccnc4)n3)c2)cc(C(F)(F)F)c1 [Example 17] | 10 to 70 nM | 20 to 60 nM
CC(=O)Nc1cc(C(=O)Nc2ccc(C)c(Nc3nccc(-c4cccnc4)n3)c2)cc(C(F)(F)F)c1 [Example 18, 3-Acetylamino-N-[4-methyl-3-[[4-(3-pyridinyl)-2-pyrimidinyl]amino]phenyl]-5-(trifluoromethyl)-benzamide] | – | 13 nM

More lines, now with the values ahead:

IC50 [1] | IC50 [2] | Compound
50 to 100 nM | 200 to 500 nM | CCN(CC)c1ccc(C(=O)Nc2ccc(C)c(Nc3nccc(-c4cccnc4)n3)c2)cc1C(F)(F)F [Example 1, 4-Diethylamino-N-[4-methyl-3-[[4-(3-pyridinyl)-2-pyrimidinyl]amino]phenyl]-3-(trifluoromethyl)-benzamide]
5 to 20 nM | 10 to 50 nM | Cc1ccc(NC(=O)c2ccc(-n3ccnc3)c(C(F)(F)F)c2)cc1Nc1nccc(-c2cccnc2)n1 [Example 6, 4-(1H-Imidazol-1-yl)-N-[4-methyl-3-[[4-(3-pyridinyl)-2-pyrimidinyl]amino]phenyl]-3-(trifluoromethyl)-benzamide]
5 to 20 nM | 10 to 50 nM | Cc1ccc(NC(=O)c2ccc(-n3ccnc3C)c(C(F)(F)F)c2)cc1Nc1nccc(-c2cccnc2)n1 [Example 7, 4-(2-Methyl-1H-imidazol-1-yl)-N-[4-methyl-3-[[4-(3-pyridinyl)-2-pyrimidinyl]amino]phenyl]-3-(trifluoromethyl)-benzamide]
5 to 20 nM | 10 to 50 nM | Cc1cn(-c2ccc(C(=O)Nc3ccc(C)c(Nc4nccc(-c5cccnc5)n4)c3)cc2C(F)(F)F)cn1 [Example 8, 4-(4-Methyl-1H-imidazol-1-yl)-N-[4-methyl-3-[[4-(3-pyridinyl)-2-pyrimidinyl]amino]phenyl]-3-(trifluoromethyl)-benzamide]
5 to 20 nM | 20 to 80 nM | Cc1cn(-c2ccc(C(=O)Nc3ccc(C)c(Nc4nccc(-c5cccnc5)n4)c3)cc2C(F)(F)F)c(C)n1 [Example 9, 4-(2,4-Dimethyl-1H-imidazol-1-yl)-N-[4-methyl-3-[[4-(3-pyridinyl)-2-pyrimidinyl]amino]phenyl]-3-(trifluoromethyl)-benzamide]
5 to 20 nM | 50 to 200 nM | Cc1ccc(NC(=O)c2ccc(N(C)CCN(C)C)c(C(F)(F)F)c2)cc1Nc1nccc(-c2cccnc2)n1 [Example 15, 4-[[2-(Dimethylamino)ethyl]methylamino]-N-[4-methyl-3-[[4-(3-pyridinyl)-2-Pyrimidinyl]amino]phenyl]-3-(trifluoromethyl)-benzamide]
5 to 20 nM | 50 to 200 nM | Cc1ccc(NC(=O)c2ccc(N(C)C3CCN(C)CC3)c(C(F)(F)F)c2)cc1Nc1nccc(-c2cccnc2)n1 [Example 16, 4-[Methyl-(1-methyl-4-piperidinyl)amino]-N-[4-methyl-3-[[4-(3-Pyridinyl)-2-pyrimidinyl]amino]phenyl]-3-(trifluoromethyl)-benzamide]
